Laboratory results reported in patent publication US20160008243A1, “METHOD OF TREATING HAIR” (priority 2013, published 2016).

Assay: Hair switch straightening test (switch volume after treatment, rinsing, combing and drying)
Description: Dark brown European wavy#6 switches of length 25 cm and weight 2 gms, were dosed with 2 ml each of different levels of trans aconitic acid solutions. They were combed straight and left to develop for at least 20 minutes. They were subsequently rinsed for 30 seconds under the tap. They were then combed straight and left to dry overnight. When dry the switches were combed straight and pictures taken. All switches looked straight without the waviness of the pre-treated switches. […] (Here volume refers to the projection of the switch image on to the screen and is given in mm^2).

[1] = 5% solution at pH 2, 2 ml per 2 g switch, at least 20 min, rinsed, dried overnight

SMILES: O=C(O)CC(O)(CC(=O)O)C(=O)O [Citric acid, reference compound]
- % benefit over water (5% solution at pH 2): 33.6%
- Volume in mm^2 (projection of the switch image on to the screen) [1]: 9481 mm^2

SMILES: O=C(O)/C=C(\CC(=O)O)C(=O)O [trans Aconitic acid, trans aconitic acid]
- % benefit over water (0.5% solution at pH 2): 15.4%
- Volume in mm^2 (projection of the switch image on to the screen) (0.5% solution at pH 2): 12073 mm^2
- % benefit over water (1% solution at pH 2): 20.4%
- Volume in mm^2 (projection of the switch image on to the screen) (1% solution at pH 2): 11363 mm^2
- % benefit over water (2.5% solution at pH 2): 24.6%
- Volume in mm^2 (projection of the switch image on to the screen) (2.5% solution at pH 2): 10763 mm^2
- % benefit over water (5% solution at pH 2): 40.8%
- Volume in mm^2 (projection of the switch image on to the screen) [1]: 8456 mm^2
- % benefit over water (5% solution at pH 3): 17.3%
- Volume in mm^2 (projection of the switch image on to the screen) (5% solution at pH 3): 11812 mm^2
- Hair straightening benefit (in words) (applied to hair, conclusion from the table): gives hair straightening benefits
